Reference: US10399932B2, “Inhibitors of indoleamine-2,3-dioxygenase for the treatment of cancer” (BRISTOL-MYERS SQUIBB COMPANY, priority 2015, dated 2019)
One block for each compound: values may come before it.

Biological target: human IDO1 (Homo sapiens, UniProt P14902)
Assay: Assessment of human IDO-1 inhibitory activity in HEK cells (human IDO1/HEK293 cells, Ehrlich reagent, absorbance at 490 nm)
Format: cell-based
Design: expressed in transfected cells
Details: In Vitro Potency in the HEK Human IDO-1 Cellular Assay
How it was run: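 Stable human IDO1-expressing HEK293 cells treated with compound for 20 h at 37 °C in phenol red-free RPMI/10% FBS. Stopped with 0.2% TCA (final) and heated 30 min at 50 °C; supernatant mixed with Ehrlich reagent, absorbance read at 490 nm. IC50 normalised to DMSO (0%) and 500 nM reference standard (100% inhibition).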

human IDO1, sequence (P14902 whole entry): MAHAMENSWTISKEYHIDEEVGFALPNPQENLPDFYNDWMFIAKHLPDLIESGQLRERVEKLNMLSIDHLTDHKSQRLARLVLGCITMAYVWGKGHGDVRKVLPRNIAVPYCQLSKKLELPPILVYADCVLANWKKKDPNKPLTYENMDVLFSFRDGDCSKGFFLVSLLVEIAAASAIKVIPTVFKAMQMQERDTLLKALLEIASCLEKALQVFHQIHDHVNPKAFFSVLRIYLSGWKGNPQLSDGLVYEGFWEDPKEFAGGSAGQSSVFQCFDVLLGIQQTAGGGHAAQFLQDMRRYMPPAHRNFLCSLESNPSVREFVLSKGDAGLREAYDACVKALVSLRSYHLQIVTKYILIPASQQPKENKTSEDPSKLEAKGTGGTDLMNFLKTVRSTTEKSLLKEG

IC50: < 0.005 µM
Structure (SMILES): COCC(CC(=O)O)c1ccc(N(CC(C)C)C2CCCCC2)c(NC(=O)Nc2ccc(Cl)cc2F)c1 (single isomer, unassigned) [Example 985-2]

IC50: > 0.05 µM
Structure (SMILES): Cc1ccc(CC(=O)Nc2cc(C(CC(=O)O)C(C)C)ccc2N(C)C(C)(C)C)cc1 (single isomer, unassigned) [Example 1007-2]

IC50: < 0.005 µM
Structure (SMILES): COCC(CC(=O)O)c1cc(F)c(N(CC(C)C)C2CCCCC2)c(NC(=O)Nc2ccc(Cl)cc2)c1 (single isomer, unassigned) [Example 1166, 3-(3-(3-(4-chlorophenyl)ureido)-4-(cyclohexyl(isobutyl)amino)-5-fluorophenyl)-4-methoxybutanoic acid]

IC50: < 0.005 µM
Structure (SMILES): CCC(CC(=O)O)c1cc(NC(=O)Nc2cnc(C)nc2)c(N(CC(C)C)C2CCCCC2)cc1F (single isomer, unassigned) [Example 1127, 3-(4-(Cyclohexyl(isobutyl)amino)-2-fluoro-5-(3-(2-methylpyrimidin-5-yl)ureido)phenyl)pentanoic acid]

IC50: < 0.05 µM
Structure (SMILES): Cc1cc(CC(=O)Nc2cc(C(CC(=O)O)C3CC3)ccc2N(CC(C)C)C2CCCCC2)no1 (single isomer, unassigned) [Example 1252, 3-(4-(Cyclohexyl(isobutyl)amino)-3-(2-(5-methylisoxazol-3-yl)acetamido)phenyl)-3-cyclopropylpropanoic acid]

IC50: > 0.05 µM
Structure (SMILES): COCC(CC(=O)O)c1ccc(N(CC(C)C)C2CCOCC2)c(NC(=O)Nc2ccc(OC(F)(F)F)cc2)c1 (single isomer, unassigned) [Example 1218, 3-(4-(Isobutyl(tetrahydro-2H-pyran-4-yl)amino)-3-(3-(4-(trifluoromethoxy)phenyl)ureido)phenyl)-4-methoxybutanoic acid]

IC50: > 0.05 µM
Structure (SMILES): CCC(CC(=O)O)c1ccc(N(CCC(C)C)C2CCCCC2)c(NC(=O)Cc2ccc(F)cc2)c1 (racemic) [Example 1089]

IC50: > 0.05 µM
Structure (SMILES): CCC(CC(=O)O)c1ccc(N2C[C@@H](C)O[C@@H](C)C2)c(Nc2ccc(F)cc2)c1 (single isomer, unassigned) [Example 759]

IC50: > 0.05 µM
Structure (SMILES): CCC(CC(=O)O)c1ccc(N2CCC[C@H]2C(C)(C)O)c(NC(=O)Nc2ccc(Cl)cc2F)c1 (single isomer, unassigned) [Example 828]

IC50: < 0.005 µM
Structure (SMILES): CCOc1ccc(NC(=O)Nc2cc(C(COC)CC(=O)O)cc(F)c2N(CC(C)C)C2CCCCC2)c(F)c1 (single isomer, unassigned) [Example 1165, 3-(4-(cyclohexyl(isobutyl)amino)-3-(3-(4-ethoxy-2-fluorophenyl)ureido)-5-fluorophenyl)-4-methoxybutanoic acid]

IC50: > 0.05 µM
Structure (SMILES): CCc1ccc(Nc2cc(C(C)CC(=O)O)ccc2N2C[C@@H](C)O[C@@H](C)C2)cc1 (single isomer, unassigned) [Example 746]

IC50: < 0.005 µM
Structure (SMILES): COCC(CC(=O)O)c1ccc(N(CC(C)C)CC(C)C)c(NC(=O)Nc2ccc(Cl)cc2F)c1 (single isomer, unassigned) [Example 995-2]

IC50: > 0.05 µM
Structure (SMILES): CCOc1ncc(Nc2cc(C(C)CC(=O)O)ccc2N2C[C@@H](C)O[C@@H](C)C2)cn1 (single isomer, unassigned) [Example 748]

IC50: < 0.005 µM
Structure (SMILES): COCC(CC(=O)O)c1ccc(N(CC(C)C)C2CCC(OC)CC2)c(NC(=O)Nc2ccc(Cl)cc2F)c1 (racemic) [Example 1006, (+/−)-3-(3-(3-(4-Chloro-2-fluorophenyl)ureido)-4-(isobutyl((1r,4r)-4-methoxycyclohexyl)amino)phenyl)-4-methoxybutanoic acid]

IC50: < 0.005 µM
Structure (SMILES): CCC(CC(=O)O)c1cc(NC(=O)Nc2ccc(C)cc2)c(N(CC(C)C)C2CCCCC2)cc1F (single isomer, unassigned) [Example 1107, 3-(4-(Cyclohexyl(isobutyl)amino)-2-fluoro-5-(3-(p-tolyl)ureido)phenyl)pentanoic acid]

Further lines, the compound ahead of its results:

Structure (SMILES): CCC(CC(=O)O)c1ccc(N(CC2CC2)C2CCOCC2)c(Nc2ccc3c(c2)OC(F)(F)O3)c1 (single isomer, unassigned) [Example 710, 3-(4-((cyclopropylmethyl)(tetrahydro-2H-pyran-4-yl)amino)-3-((2,2-difluorobenzo[d][1,3]dioxol-5-yl)amino)phenyl)pentanoic acid]
IC50: < 0.005 µM

Structure (SMILES): COCC(CC(=O)O)c1ccc(N(CC2CC2)C2CCOCC2)c(NC(=O)Nc2ccc(C)cc2)c1 (single isomer, unassigned) [Example 677, 3-(4-((Cyclopropylmethyl)(tetrahydro-2H-pyran-4-yl)amino)-3-(3-(p-tolyl)ureido)phenyl)-4-methoxybutanoic acid]
IC50: > 0.05 µM

Structure (SMILES): CC[C@@H](CC(=O)O)c1ccc(N(CC(C)C)C2CCS(=O)(=O)CC2)c(NC(=O)Nc2cc(C)on2)c1 (single isomer, unassigned) [Example 218]
IC50: > 0.05 µM

Structure (SMILES): CCN(c1ccc(C(CC(=O)O)c2ccccc2)cc1Nc1ccc(OC(F)F)cc1)C1CCOCC1 (single isomer, unassigned) [Example 593, 3-(3-((4-(difluoromethoxy)phenyl)amino)-4-(ethyl(tetrahydro-2H-pyran-4-yl)amino)phenyl)-3-phenylpropanoic acid]
IC50: < 0.05 µM

Structure (SMILES): CC(CC(=O)O)c1ccc(N(CC(C)(C)O)C2CCOCC2)c(Nc2ccc(Cl)cc2)c1 (single isomer, unassigned) [Example 193, 3-(3-((4-chlorophenyl)amino)-4-((2-hydroxy-2-methylpropyl)(tetrahydro-2H-pyran-4-yl)amino)phenyl)butanoic acid]
IC50: < 0.005 µM

Structure (SMILES): CCOc1ncc(Nc2cc(C(CC)CC(=O)O)ccc2N(CC)C2CCCOC2)cn1 (single isomer, unassigned) [Example 72, 3-(3-((2-ethoxypyrimidin-5-yl)amino)-4-(ethyl(tetrahydro-2H-pyran-3-yl)amino)phenyl)pentanoic acid]
IC50: < 0.005 µM

Structure (SMILES): CCc1cnc(Nc2cc([C@@H](CC)CC(=O)O)ccc2N(CC)C2CCCCC2)nc1 (single isomer, unassigned) [Example 280]
IC50: > 0.05 µM

Structure (SMILES): CC(CC(=O)O)c1ccc(N(CC(C)(C)O)C2CCCCC2)c(Nc2ccc(Cl)c(OCC(F)(F)F)c2)c1 (single isomer, unassigned) [Example 55, 3-(3-((4-chloro-3-(2,2,2-trifluoroethoxy)phenyl)amino)-4-(cyclohexyl(2-hydroxy-2-methylpropyl)amino)phenyl) butanoic acid]
IC50: > 0.05 µM

Structure (SMILES): CCC(CC(=O)O)c1cc(F)c(N(CC(C)C)CC(C)C)c(Nc2cnc(OC)nc2)c1 (single isomer, unassigned) [Example 120, 3-(4-(diisobutylamino)-3-fluoro-5-((2-methoxypyrimidin-5-yl)amino)phenyl) pentanoic acid]
IC50: < 0.005 µM

Structure (SMILES): CCOc1ccc(Nc2cc(C(CC)CC(=O)O)cc(F)c2N(CC(C)C)CC(C)C)cc1 (single isomer, unassigned) [Example 113, 3-(4-(diisobutylamino)-3-((4-ethoxyphenyl)amino)-5-fluorophenyl)pentanoic acid]
IC50: < 0.05 µM

Structure (SMILES): CCC(CC(=O)O)c1cc(F)c(N(CC(C)C)CC(C)C)c(NC(=O)c2ccc(Cl)cc2)c1 (single isomer, unassigned) [Example 128, 3-(3-(4-Chlorobenzamido)-4-(diisobutylamino)-5-fluorophenyl)pentanoic acid]
IC50: > 0.05 µM

Structure (SMILES): CC(CC(=O)O)c1ccc(N2C[C@@H](C)O[C@@H](C)C2)c(Nc2ccc(F)cc2)c1 (single isomer, unassigned) [Example 744]
IC50: > 0.05 µM
